Consider 19 molecules from patent publication US20260132132A1, “3A,4,5,6-TETRAHYDRO-1 H-PYRAZOLO[3,4-C]PYRIDIN-7(7AH)-ONE DERIVATIVES AS FACTOR XIIA INHIBITORS” (KALVISTA PHARMACEUTICALS LIMITED, priority 2022, published 2026).

For one assay, the target named is FXa (Homo sapiens, UniProt P00742). Kind of assay: Related protease inhibition: FXa, fluorogenic substrate. The assay is classed as biochemical. As to conditions: fluorogenic substrate at Km, 25° C.; H1-H3 = % activity at 40 μM. As to the method: Human serine protease enzyme Plasma Kallikrein, KLK1, FXa, Plasmin, Thrombin and Trypsin were assayed for enzymatic activity using an appropriate fluorogenic substrate at Km concentration, FXIa at fixed substrate concentration of 100 μM and various concentrations of the test compound.
Chain of FXa (P00742 235-488 limits assumed): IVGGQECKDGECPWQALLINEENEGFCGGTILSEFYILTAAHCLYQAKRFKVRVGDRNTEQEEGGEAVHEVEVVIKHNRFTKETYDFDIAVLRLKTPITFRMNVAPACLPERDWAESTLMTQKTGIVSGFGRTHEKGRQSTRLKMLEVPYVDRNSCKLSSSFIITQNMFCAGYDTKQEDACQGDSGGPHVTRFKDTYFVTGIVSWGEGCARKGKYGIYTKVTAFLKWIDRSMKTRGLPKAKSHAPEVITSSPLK
Chain of FXa (P00742 41-179 partner limits assumed): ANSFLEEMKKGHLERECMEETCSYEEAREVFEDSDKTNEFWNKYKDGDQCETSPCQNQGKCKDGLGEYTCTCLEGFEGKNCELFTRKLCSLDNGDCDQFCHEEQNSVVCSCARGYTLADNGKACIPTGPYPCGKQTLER

Assay [1] deals with T1, Human Factor XIIa (hFXIIa) (Homo sapiens, UniProt P00748).
T1 construct: purchased Enzyme Research Laboratories
T1 sequence (P00748 373-615 limits assumed): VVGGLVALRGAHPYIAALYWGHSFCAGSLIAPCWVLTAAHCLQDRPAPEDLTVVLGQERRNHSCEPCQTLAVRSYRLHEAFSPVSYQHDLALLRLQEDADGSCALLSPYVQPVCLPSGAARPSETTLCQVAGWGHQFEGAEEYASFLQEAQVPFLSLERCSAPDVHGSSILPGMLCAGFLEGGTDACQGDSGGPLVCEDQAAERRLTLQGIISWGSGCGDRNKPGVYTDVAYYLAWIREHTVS
T1 sequence (P00748 20-372 partner limits assumed): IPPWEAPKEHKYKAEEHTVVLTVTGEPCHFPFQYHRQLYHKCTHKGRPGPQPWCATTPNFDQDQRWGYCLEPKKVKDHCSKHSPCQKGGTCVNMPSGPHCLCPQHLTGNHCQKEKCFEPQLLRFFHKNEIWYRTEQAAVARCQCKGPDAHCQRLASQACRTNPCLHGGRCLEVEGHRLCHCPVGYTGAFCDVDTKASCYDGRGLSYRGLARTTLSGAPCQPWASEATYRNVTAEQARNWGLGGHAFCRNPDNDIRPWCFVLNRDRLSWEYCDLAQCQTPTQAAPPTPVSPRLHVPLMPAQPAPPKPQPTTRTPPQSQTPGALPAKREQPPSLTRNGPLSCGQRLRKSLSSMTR
Kind of assay: Determination of Human Factor XIIa (hFXIIa) inhibition, fluorogenic substrate IC50 assay. It is filed as biochemical. To be noted: fluorogenic substrate H-DPro-Phe-Arg-AFC at Km, 25° C., read-out: Human FXIIa IC50. As to the method: Determination of Human Factor XIIa (hFXIIa) inhibition
The Km for the cleavage of the substrate by hFXIIa was determined by standard transformation of the Michaelis-Menten equation, with subsequent inhibition assays performed at substrate Km concentration.

Molecules are shown by their SMILES.

The term IC50 denotes the midpoint of a concentration-inhibition curve. On to `O=C(NCC1CC1)c1nn(-c2cccc(Cl)c2)c2c1CCN(c1ccc3c(c1)C(=O)N(CC1CCOC1)CC3)C2=O` (centres unmarked) [Example 1257, 1-(3-chlorophenyl)-N-(cyclopropylmethyl)-7-oxo-6-(1-oxo-2-((tetrahydrofuran-3-yl)methyl)-1,2,3,4-tetrahydroisoquinolin-7-yl)-4,5,6,7-tetrahydro-1H-pyrazolo[3,4-c]pyridine-3-carboxamide], for which the values for the IC50 (on FXa; in assay [1]) were over 40 µM and 0.3 to 1 µM, respectively.

Regarding `CN1CCc2ccc(N3CCc4c(C(=O)NC(CO)C5CCOC5)nn(-c5cccc(Cl)c5)c4C3=O)cc2C1=O` (centres unmarked) [Example 1180, 1-(3-chlorophenyl)-N-(2-hydroxy-1-(tetrahydrofuran-3-yl)ethyl)-6-(2-methyl-1-oxo-1,2,3,4-tetrahydroisoquinolin-7-yl)-7-oxo-4,5,6,7-tetrahydro-1H-pyrazolo[3,4-c]pyridine-3-carboxamide], the IC50 against FXa is over 40 µM; in assay [1], 0.3 to 1 µM.

`Cc1ccncc1C(C)NC(=O)c1nn(-c2cccc(Cl)c2)c2c1CCN(c1ccc3c(c1)C(=O)N(CCO)CC3)C2=O` (centres unmarked) [Example 1327, 1-(3-chlorophenyl)-6-(2-(2-hydroxyethyl)-1-oxo-1,2,3,4-tetrahydroisoquinolin-7-yl)-N-(1-(4-methylpyridin-3-yl)ethyl)-7-oxo-4,5,6,7-tetrahydro-1H-pyrazolo[3,4-c]pyridine-3-carboxamide]: the values for the IC50 (against FXa; in assay [1]) were over 40 µM and 0.1 to 0.3 µM, respectively.

Regarding `O=C(NCc1ccccc1)c1nn(-c2cccc(Cl)c2)c2c1CCN(c1ccc3c(c1)CN(C1CC1)CC3)C2=O` [Example 1029, N-benzyl-1-(3-chlorophenyl)-6-(2-cyclopropyl-1,2,3,4-tetrahydroisoquinolin-7-yl)-7-oxo-4,5,6,7-tetrahydro-1H-pyrazolo[3,4-c]pyridine-3-carboxamide], the IC50 on FXa was over 100 µM; in assay [1] it was 0.3 to 1 µM.

On to `Cc1cn(C)nc1C(=O)NCc1nn(-c2cccc(Cl)c2)c2c(=O)n(-c3ccc4c(c3)CN(CCO)CC4)c(C)nc12` [Example 3009, N-[[1-(3-Chlorophenyl)-6-[2-(2-hydroxyethyl)-3,4-dihydro-1H-isoquinolin-7-yl]-5-methyl-7-oxopyrazolo[4,3-d]pyrimidin-3-yl]methyl]-1,4-dimethylpyrazole-3-carboxamide], for which the IC50 was in the range of 3 to 10 µM against FXa and 0.3 to 1 µM in assay [1].

With `O=C(NCc1ncccc1F)c1nn(-c2cccc(Cl)c2)c2c1CCN(c1ccc3c(c1)CN(CCO)CC3)C2=O` [Example 1130, 1-(3-chlorophenyl)-N-((3-fluoropyridin-2-yl)methyl)-6-(2-(2-hydroxyethyl)-1,2,3,4-tetrahydroisoquinolin-7-yl)-7-oxo-4,5,6,7-tetrahydro-1H-pyrazolo[3,4-c]pyridine-3-carboxamide], the half-maximal inhibitory concentration (IC50) on FXa lay within 10 to 40 µM; in assay [1] it was 0.01 to 0.1 µM.

For the molecule `CCCN1CCc2ccc(N3CCc4c(C(=O)NCc5cnccc5C)nn(-c5cccc(Cl)c5)c4C3=O)cc2C1=O` [Example 1209, 1-(3-chlorophenyl)-N-((4-methylpyridin-3-yl)methyl)-7-oxo-6-(1-oxo-2-propyl-1,2,3,4-tetrahydroisoquinolin-7-yl)-4,5,6,7-tetrahydro-1H-pyrazolo[3,4-c]pyridine-3-carboxamide], the IC50 is over 40 µM against FXa and 0.1 to 0.3 µM in assay [1].

Consider `CCN1CCc2ccc(N3CCc4c(C(=O)NCc5cc(C6CC6)n[nH]5)nn(-c5cccc(Cl)c5)c4C3=O)cc2C1` [Example 1150, 1-(3-chlorophenyl)-N-((3-cyclopropyl-1H-pyrazol-5-yl)methyl)-6-(2-ethyl-1,2,3,4-tetrahydroisoquinolin-7-yl)-7-oxo-4,5,6,7-tetrahydro-1H-pyrazolo[3,4-c]pyridine-3-carboxamide], for which the figures for the IC50 (on FXa; in assay [1]) were 3 to 10 µM and 0.01 to 0.1 µM, respectively.

Regarding `Cc1ccncc1CNC(=O)c1nn(-c2cccc(Cl)c2)c2c1CCN(c1ccc3c(c1)C(=O)N(C)CC3)C2=O` [Example 1159, 1-(3-Chlorophenyl)-6-(2-methyl-1-oxo-1,2,3,4-tetrahydroisoquinolin-7-yl)-N-((4-methylpyridin-3-yl)methyl)-7-oxo-4,5,6,7-tetrahydro-1H-pyrazolo[3,4-c]pyridine-3-carboxamide], the IC50 at FXa was over 40 µM; in assay [1], 0.01 to 0.1 µM.

Consider `CN1CCc2ccc(N3CCc4c(C(=O)NCC5CCCCC5)nn(-c5cccc(Cl)c5)c4C3=O)cc2C1` [Example 1023, 1-(3-chlorophenyl)-N-(cyclohexylmethyl)-6-(2-methyl-1,2,3,4-tetrahydroisoquinolin-7-yl)-7-oxo-4,5,6,7-tetrahydro-1H-pyrazolo[3,4-c]pyridine-3-carboxamide], for which the figures for the IC50 (against FXa; in assay [1]) were 3 to 10 µM and 0.1 to 0.3 µM, respectively.

Take `CN1CCc2ccc(N3CCc4c(C(=O)NCC5CC5)nn(-c5cccc(Cl)c5F)c4C3=O)cc2C1=O` [Example 2004, 1-(3-chloro-2-fluorophenyl)-N-(cyclopropylmethyl)-6-(2-methyl-1-oxo-1,2,3,4-tetrahydroisoquinolin-7-yl)-7-oxo-4,5,6,7-tetrahydro-1H-pyrazolo[3,4-c]pyridine-3-carboxamide]: the IC50 against FXa was over 40 µM; in assay [1], 0.1 to 0.3 µM.

As for `Cc1cc(CNC(=O)c2nn(-c3cccc(Cl)c3)c3c2CCN(c2ccc4c(c2)C(=O)N(CCO)[C@@H](C)CO4)C3=O)nn1C` [Example 1379, (S)-1-(3-chlorophenyl)-N-((1,5-dimethyl-1H-pyrazol-3-yl)methyl)-6-(4-(2-hydroxyethyl)-3-methyl-5-oxo-2,3,4,5-tetrahydrobenzo[f][1,4]oxazepin-7-yl)-7-oxo-4,5,6,7-tetrahydro-1H-pyrazolo[3,4-c]pyridine-3-carboxamide], the IC50 at FXa was in the range of 3 to 10 µM; in assay [1], 0.3 to 1 µM.

For the molecule `CN1CCc2ccc(N3CCc4c(C(=O)NC5CCOCC5)nn(-c5cccc(Cl)c5)c4C3=O)cc2C1=O` [Example 1203, 1-(3-chlorophenyl)-6-(2-methyl-1-oxo-1,2,3,4-tetrahydroisoquinolin-7-yl)-7-oxo-N-(tetrahydro-2H-pyran-4-yl)-4,5,6,7-tetrahydro-1H-pyrazolo[3,4-c]pyridine-3-carboxamide], the IC50 on FXa was over 40 µM; in assay [1], 0.1 to 0.3 µM.

With `CCN1CCc2cc(F)c(N3CCc4c(C(=O)NCc5cc(C6CC6)n[nH]5)nn(-c5cccc(Cl)c5)c4C3=O)cc2C1` [Example 1234, 1-(3-chlorophenyl)-N-((3-cyclopropyl-1H-pyrazol-5-yl)methyl)-6-(2-ethyl-6-fluoro-1,2,3,4-tetrahydroisoquinolin-7-yl)-7-oxo-4,5,6,7-tetrahydro-1H-pyrazolo[3,4-c]pyridine-3-carboxamide], the IC50 against FXa fell in the range of 3 to 10 µM; in assay [1], 0.01 to 0.1 µM.

Regarding `CCNC(=O)c1nn(-c2cccc(Cl)c2)c2c1CCN(c1cccc(N3CC4(CC4)N(C)C3=O)c1)C2=O` [Example 1369, 1-(3-chlorophenyl)-N-ethyl-6-(3-(4-methyl-5-oxo-4,6-diazaspiro[2.4]heptan-6-yl)phenyl)-7-oxo-4,5,6,7-tetrahydro-1H-pyrazolo[3,4-c]pyridine-3-carboxamide], the IC50 is over 40 µM on FXa and 3 to 10 µM in assay [1].

In the case of `CCNC(=O)c1nn(-c2cc(C)ccn2)c2c1CCN(c1ccc3c(c1)C(=O)N(C)CC3)C2=O` [Example 2035, N-ethyl-6-(2-methyl-1-oxo-1,2,3,4-tetrahydroisoquinolin-7-yl)-1-(4-methylpyridin-2-yl)-7-oxo-4,5,6,7-tetrahydro-1H-pyrazolo[3,4-c]pyridine-3-carboxamide], the IC50 at FXa lay in the range of 10 to 40 µM; in assay [1], 3 to 10 µM.

Regarding `CN(C)C(=O)c1cccc(N2CCc3c(C(=O)NCC4CC4)nn(-c4cccc(Cl)c4)c3C2=O)c1` [Example 1195, 1-(3-Chlorophenyl)-N-(cyclopropylmethyl)-6-[3-(dimethylcarbamoyl)phenyl]-7-oxo-4,5-dihydropyrazolo[3,4-c]pyridine-3-carboxamide], the IC50 on FXa was over 40 µM; in assay [1], 3 to 10 µM.

On to `COc1cncc(CNC(=O)c2nn(-c3cccc(Cl)c3)c3c2CCN(c2ccc4c(c2)CN(CCO)CC4)C3=O)c1` [Example 1141, 1-(3-chlorophenyl)-6-(2-(2-hydroxyethyl)-1,2,3,4-tetrahydroisoquinolin-7-yl)-N-((5-methoxypyridin-3-yl)methyl)-7-oxo-4,5,6,7-tetrahydro-1H-pyrazolo[3,4-c]pyridine-3-carboxamide], for which the IC50 against FXa lay in the range of 3 to 10 µM; in assay [1], 0.01 to 0.1 µM.

Regarding `O=C(NCC1CC1)c1nn(-c2cccc(Cl)c2)c2c1CCN(c1ccc3c(c1)CN(CCO)CC31CC1)C2=O` [Example 1143, 1-(3-chlorophenyl)-N-(cyclopropylmethyl)-6-(2′-(2-hydroxyethyl)-2′,3′-dihydro-1′H-spiro[cyclopropane-1,4′-isoquinolin]-7′-yl)-7-oxo-4,5,6,7-tetrahydro-1H-pyrazolo[3,4-c]pyridine-3-carboxamide], the IC50 lay within 3 to 10 µM at FXa and 0.1 to 0.3 µM in assay [1].
